Common to all, as to assay type: cell-based, S. cerevisiae
Holding throughout (details): 1 uM small molecule, difference to activity without small molecule, average of two trials

The target of one experiment is T1, LexA mDHFR / B42 rGR2 (UniProt P00375+P06536, C656G/F620S).
T1 construct: rat Glucocorticoid Receptor (aa 524-795) with point mutations; expressed in transfected cells; host or cells: S. cerevisiae FY250
T1 sequence (P00375 1-187): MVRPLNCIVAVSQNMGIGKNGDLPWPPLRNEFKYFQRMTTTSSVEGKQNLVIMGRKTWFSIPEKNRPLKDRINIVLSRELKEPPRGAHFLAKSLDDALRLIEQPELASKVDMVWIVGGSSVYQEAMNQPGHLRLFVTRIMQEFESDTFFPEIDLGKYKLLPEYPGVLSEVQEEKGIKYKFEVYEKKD
T1 sequence (P06536 524-795 F620S/C656G limits assumed): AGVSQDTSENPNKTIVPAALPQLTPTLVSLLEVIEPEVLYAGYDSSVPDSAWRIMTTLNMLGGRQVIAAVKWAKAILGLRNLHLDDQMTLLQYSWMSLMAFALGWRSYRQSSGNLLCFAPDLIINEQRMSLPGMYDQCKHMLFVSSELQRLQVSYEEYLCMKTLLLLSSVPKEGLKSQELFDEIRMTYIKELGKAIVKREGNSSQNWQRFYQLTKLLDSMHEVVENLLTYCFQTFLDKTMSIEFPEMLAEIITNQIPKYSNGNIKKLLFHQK
In words: β-galactosidase activity assay, strain V495Y. From the text: (§1) Table III explains the components of each strain. Each strain was constructed from the parent yeast strain FY250 and also contains the pMW106 plasmid, which has the LacZ reporter gene that is turned on only in when the LexA DNA binding domain and the B42 activation are brought in tot he vicinity of each other. We use several different strains because we use DHFR from two different species, mDHFR is from murine, while eDHFR is from E. coli. We are asl oable to switch the small moleculebinding domains. For example, the strain containing LexA-eDHFR with B42-rGH2 is a different strain and behaves differently from the strain containing LexA-rGR2 with B42-eDHFR. We also put in short 6 amino acid linkers between the two domains of our protein chimeras and thus these are different strain as well.
(§2) The results in Table IV are averages of two separate trials. Each strain was examined with small molecules and without small molecules. The absolute activity is given as the β-galactisidase activity […]. The average β-galactosidse activity for a strain without small molecule (i.e. the negative control) was about 100 β-galactosidase units.

For experiment [1], the target named is T2, LexA rGR2 / B42 (GSG)2mDHFR (UniProt P00375+P06536, C656G/F620S).
T2 construct: expressed in transfected cells; host or cells: S. cerevisiae FY250 with pMW106 lacZ reporter
T2 sequence (P06536 524-795 F620S/C656G limits assumed): T1 sequence (P06536 524-795 F620S/C656G limits assumed)
T2 sequence (P00375 1-187): T1 sequence (P00375 1-187)
In words: β-galactosidase activity assay, strain V511Y.
From the text: as §1, §2

Experiment [2] deals with T3, LexA mDHFR / B42 gly6rGR2 (UniProt P00375+P06536, C656G/F620S).
T3 construct: rat Glucocorticoid Receptor (aa 524-795) with point mutations; expressed in transfected cells; host or cells: S. cerevisiae FY250
T3 sequence (P00375 1-187): T1 sequence (P00375 1-187)
T3 sequence (P06536 524-795 F620S/C656G limits assumed): T1 sequence (P06536 524-795 F620S/C656G limits assumed)
In words: β-galactosidase activity assay, strain V496Y.
From the text: as §1, §2

The target in experiment [3] is T4, LexA (GSG)2eDHFR / B42 rGR2 (UniProt P06536+P0ABQ4, C656G/F620S).
T4 construct: rat Glucocorticoid Receptor (aa 524-795) with point mutations; expressed in transfected cells; host or cells: S. cerevisiae FY250
T4 sequence (P0ABQ4 1-159): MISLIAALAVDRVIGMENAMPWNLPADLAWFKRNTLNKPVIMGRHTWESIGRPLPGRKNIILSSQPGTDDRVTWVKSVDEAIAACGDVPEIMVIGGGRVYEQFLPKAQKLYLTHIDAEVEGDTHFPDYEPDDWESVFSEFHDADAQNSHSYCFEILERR
T4 sequence (P06536 524-795 F620S/C656G limits assumed): T1 sequence (P06536 524-795 F620S/C656G limits assumed)
Nature of the experiment: β-galactosidase activity assay, strain V498Y.
From the text: as §1, §2

Experiment [4] has as its target T5, LexA (GSG)2rGR2 / B42 (GSG)2mDHFR (UniProt P00375+P06536, C656G/F620S).
T5 construct: rat Glucocorticoid Receptor (aa 524-795) with point mutations; expressed in transfected cells; host or cells: S. cerevisiae FY250
T5 sequence (P06536 524-795 F620S/C656G limits assumed): T1 sequence (P06536 524-795 F620S/C656G limits assumed)
T5 sequence (P00375 1-187): T1 sequence (P00375 1-187)
In words: β-galactosidase activity assay, strain V512Y.
From the text: as §1, §2

Experiment [5] addresses T6, LexA (GSG)2rGR2 / B42 eDHFR (UniProt P06536+P0ABQ4, C656G/F620S).
T6 construct: expressed in transfected cells; host or cells: S. cerevisiae FY250 with pMW106 lacZ reporter
T6 sequence (P06536 524-795 F620S/C656G limits assumed): T1 sequence (P06536 524-795 F620S/C656G limits assumed)
T6 sequence (P0ABQ4 1-159): T4 sequence (P0ABQ4 1-159)
Nature of the experiment: β-galactosidase activity assay, strain V506Y.
From the text: as §1, §2

A further experiment addresses T7, LexA rGR2 / B42 mDHFR (UniProt P00375+P06536, C656G/F620S).
T7 construct: rat Glucocorticoid Receptor (aa 524-795) with point mutations; expressed in transfected cells; host or cells: S. cerevisiae FY250
T7 sequence (P06536 524-795 F620S/C656G limits assumed): T1 sequence (P06536 524-795 F620S/C656G limits assumed)
T7 sequence (P00375 1-187): T1 sequence (P00375 1-187)
In words: β-galactosidase activity assay, strain V507Y.
From the text: as §1, §2

A further experiment deals with T8, LexA rGR2 / B42 eDHFR (UniProt P06536+P0ABQ4, C656G/F620S).
T8 construct: rat Glucocorticoid Receptor (aa 524-795) with point mutations; expressed in transfected cells; host or cells: S. cerevisiae FY250
T8 sequence (P06536 524-795 F620S/C656G limits assumed): T1 sequence (P06536 524-795 F620S/C656G limits assumed)
T8 sequence (P0ABQ4 1-159): T4 sequence (P0ABQ4 1-159)
In words: β-galactosidase activity assay, strain V505Y.
From the text: as §1, §2

For experiment [6], the target named is T9, LexA (GSG)2mDHFR / B42 rGR2 (UniProt P00375+P06536, C656G/F620S).
T9 construct: rat Glucocorticoid Receptor (aa 524-795) with point mutations; expressed in transfected cells; host or cells: S. cerevisiae FY250
T9 sequence (P00375 1-187): T1 sequence (P00375 1-187)
T9 sequence (P06536 524-795 F620S/C656G limits assumed): T1 sequence (P06536 524-795 F620S/C656G limits assumed)
Nature of the experiment: β-galactosidase activity assay, strain V502Y.
From the text: as §1, §2

In experiment [7] the target is T10, LexA (GSG)2eDHFR / B42 gly6rGR2 (UniProt P06536+P0ABQ4, C656G/F620S).
T10 construct: rat Glucocorticoid Receptor (aa 524-795) with point mutations; expressed in transfected cells; host or cells: S. cerevisiae FY250
T10 sequence (P0ABQ4 1-159): T4 sequence (P0ABQ4 1-159)
T10 sequence (P06536 524-795 F620S/C656G limits assumed): T1 sequence (P06536 524-795 F620S/C656G limits assumed)
Nature of the experiment: β-galactosidase activity assay, strain V499Y.
From the text: as §1, §2

Molecules are shown by their SMILES.

`C[C@@H]1C[C@H]2C3CCC4=CC(=O)C=C[C@]4(C)[C@@]3(F)[C@@H](O)C[C@]2(C)[C@@]1(O)C(=O)NCCSCCCCCCCCSCC[C@H](NC(=O)c1ccc(N(C)Cc2cnc3nc(N)nc(N)c3n2)cc1)C(=O)O` (stereo partly shown) [D8M]: the B-gal activity was 38 β-galactosidase units on LexA mDHFR / B42 rGR2; −129 β-galactosidase units in experiment [1]; −27 β-galactosidase units in experiment [2]; 5442 β-galactosidase units in experiment [3]; −4 β-galactosidase units in experiment [4]; 3867 β-galactosidase units in experiment [5]. Further, the B-gal activity on LexA rGR2 / B42 mDHFR was −6 β-galactosidase units; at LexA rGR2 / B42 eDHFR, 2532 β-galactosidase units; in experiment [6], 30 β-galactosidase units; in experiment [7], 7012 β-galactosidase units.

The record behind these values is patent US7419780B2, “Methods and assays for screening protein targets” (The Trustees of Columbia University in the City of New York, priority 2000, dated 2008).
